From patent publication US10329300B2, “Pyrazolo[3,4-d]pyrimidine compound or salt thereof” (TAIHO PHARMACEUTICAL CO., LTD., priority 2015, dated 2019)
Where two headings read alike, the source gives them in different places.

How the values were obtained:
Type in all cases: cell-based
[1] = system: HER2-overexpressing human stomach cancer cell line NCI-N87 cells; assay: Cytostatic activity against HER2-expressing cell line NCI-N87 (CellTiter-Glo)
Description: HER2-overexpressing human stomach cancer cell line NCI-N87 cells were suspended in RPMI1640 medium (manufactured by Life Technologies Corp.) containing 10% fetal bovine serum. Meanwhile, EGFR-overexpressing highly activated human epithelioid cancer cell line A431 cells were suspended in DMEM, high glucose medium (manufactured by Life Technologies Corp.) containing 10% fetal bovine serum. Subsequently, each cell suspension was inoculated to each well of a 384-well flat-bottom microplate and cultured at 37° C. for 1 day in an incubator containing 5% carbon dioxide. […] The solution of the test compound in DMSO was diluted with the medium used in the suspension of each cell line, and this solution was added at a final concentration of DMSO of 0.2% to each well of the cell culture plate, followed by further culture at 37° C. for 3 days in an incubator containing 5% carbon dioxide.

[2] = system: HER2-overexpressing human breast cancer cell line SK-BR-3 cells; assay: Cytostatic activity against HER2-expressing cell line SK-BR-3 (CellTiter-Glo); details: 3-day culture, read-out: SK-BR-3 cell growth inhibitory activity IC50 value
Method: HER2-overexpressing human breast cancer cell line SK-BR-3 cells were suspended in McCoy's 5a medium (manufactured by Life Technologies Corp.) containing 10% fetal bovine serum. The cell suspension was inoculated to each well of a 384-well flat-bottom microplate and cultured at 37° C. for 1 day in an incubator containing 5% carbon dioxide. The compound of the present invention was dissolved in DMSO, and the test compound was diluted into 500 times as high concentration as the final concentration using DMSO. The solution of the test compound in DMSO was diluted with the medium used in the suspension of each cell line, and this solution was added at a final concentration of DMSO of 0.2% to each well of the cell culture plate, followed by further culture at 37° C. for 3 days in an incubator containing 5% carbon dioxide.

[3] = system: EGFR-overexpressing highly activated human epithelioid cancer cell line A431 cells; assay: Cytostatic activity against EGFR-expressing cell line A431 (CellTiter-Glo); details: 3-day culture, read-out: A431 cell growth inhibitory activity IC50 value
Description: Test Example 2 Measurement Test (In Vitro) of Cytostatic Activity Against HER2-Expressing Cell Line (NCI-N87) and EGFR-Expressing Cell Line (A431) and Comparison of Selectivity Thereof
HER2-overexpressing human stomach cancer cell line NCI-N87 cells were suspended in RPMI1640 medium (manufactured by Life Technologies Corp.) containing 10% fetal bovine serum. Meanwhile, EGFR-overexpressing highly activated human epithelioid cancer cell line A431 cells were suspended in DMEM, high glucose medium (manufactured by Life Technologies Corp.) containing 10% fetal bovine serum. Subsequently, each cell suspension was inoculated to each well of a 384-well flat-bottom microplate and cultured at 37° C. for 1 day in an incubator containing 5% carbon dioxide. The compound of the present invention or Comparative Example compound 1 was dissolved in DMSO, and the test compound was diluted into a concentration of 500 times the final concentration using DMSO. The solution of the test compound in DMSO was diluted with the medium used in the suspension of each cell line, and this solution was added at a final concentration of DMSO of 0.2% to each well of the cell culture plate, followed by further culture at 37° C. for 3 days in an incubator containing 5% carbon dioxide.
Rate of growth inhibition (%)=(C−T)/(C)×100 T: Luminescence intensity of a well supplemented with the test compound C: Luminescence intensity of a well not supplemented with the test compound

[4] = Homo sapiens, 72 h, 3-day culture, NCI-N87, read-out: NCI-N87 cell growth inhibitory activity IC50 value

IC50 [1, 4] [nM] | IC50 ([3]; Homo sapiens, A-431, 72 h) [µM] | Compound | also measured
12 | 1.8 | C=CC(=O)N1CCC[C@@H](n2nc(C(=O)Nc3cc(C)c(CC(=O)N(C)C)cc3C)c3c(N)ncnc32)C1 [Example 39, (R)-1-(1-acryloylpiperidin-3-yl)-4-amino-N-(4-(2-(dimethylamino)-2-oxoethyl)-2,5-dimethylphenyl)-1H-pyrazolo[3,4-d]pyrimidine-3-carboxamide] | IC50 ([2]; Homo sapiens, 72 h): 0.024 µM
11 | 1.67 | C=CC(=O)N1CCC[C@@H](n2nc(C(=O)Nc3ccc(CC(=O)N(C)C)c4c3OCO4)c3c(N)ncnc32)C1 [Example 53, (R)-1-(1-acryloylpiperidin-3-yl)-4-amino-N-(7-(2-(dimethylamino)-2-oxoethyl)benzo[d][1,3]dioxol-4-yl)-1H-pyrazolo[3,4-d]pyrimidine-3-carboxamide] | 
 | 2.51 | C=CC(=O)N1CC[C@@H](n2nc(C(=O)Nc3ccc(CC(=O)N(C)C)c(F)c3C)c3c(N)ncnc32)C1 [Example 56, (R)-1-(1-acryloylpyrrolidin-3-yl)-4-amino-N-(4-(2-(dimethylamino)-2-oxoethyl)-3-fluoro-2-methylphenyl)-1H-pyrazolo[3,4-d]pyrimidine-3-carboxamide] | 

More lines, now with the values behind:

Compound | IC50 [1, 4] [nM] | IC50 ([3]; Homo sapiens, A-431, 72 h) [µM] | also measured
C=CC(=O)N1CCC[C@@H](n2nc(C(=O)Nc3nc4cc(F)ccc4o3)c3c(N)ncnc32)C1 [Comparative Example compound 1, (R)-1-(1-acryloylpiperidin-3-yl)-4-amino-N-(5-fluorobenzo[d]oxazol-2-yl)-1H-pyrazolo[3,4-d]pyrimidine-3-carboxamide, reference compound] | 2380 |  | cytostatic effect in evaluation using HER2-overexpressing cell lines ([1]; HER2-overexpressing cell lines, qualitative): very low cytostatic effect; IC50 ([2]; Homo sapiens, 72 h): 1.13 µM
C=CC(=O)N1CCC[C@@H](n2nc(C(=O)Nc3ccc(CC(=O)N(C)C)c(Cl)c3)c3c(N)ncnc32)C1 [Example 8, (R)-1-(1-acryloylpiperidin-3-yl)-4-amino-N-(3-chloro-4-(2-(dimethylamino)-2-oxoethyl)phenyl)-1H-pyrazolo[3,4-d]pyrimidine-3-carboxamide] |  | 0.956 | 
C=CC(=O)N1CCC[C@@H](n2nc(C(=O)Nc3ccc(OC(=O)N(C)C)cc3OC)c3c(N)ncnc32)C1 [Example 36, (R)-4-(1-(1-acryloylpiperidin-3-yl)-4-amino-1H-pyrazolo[3,4-d]pyrimidine-3-carboxamido)-3-methoxyphenyl dimethylcarbamate] |  | 2.61 | IC50 ([1]; Homo sapiens, NCI-N87, 72 h, read-out: NCI-N87 cell growth inhibitory activity IC50 value (nM)): 8 nM
(R)-1-(1-acryloylpiperidin-3-yl)-4-amino-N-(4-(2-methoxy(methyl)amino-2-oxoethyl)-2-methylphenyl)-1H-pyrazolo[3,4-d]pyrimidine-3-carboxamide [Example 72] |  |  | IC50 [3]: 1.17 µM; IC50 ([1]; 3-day culture, NCI-N87, read-out: NCI-N87 cell growth inhibitory activity IC50 value): 5 nM; IC50 [2]: 0.016 µM
(R,E)-4-(4-amino-1-(1-(4-dimethylamino)but-2-enoyl)piperidin-3-yl)-1H-pyrazolo[3,4-d]pyrimidine-3-carboxamido)naphthalen-1-yl dimethyl carbamate [Example 66] |  |  | IC50 [3]: 6.04 µM
